The compounds below were run against MAPK14 (human) (UniProt Q16539) (assay: Inhibition of MAPK14 Kinase Activity).
MAPK14 (human), sequence (Q16539 whole entry, looked up): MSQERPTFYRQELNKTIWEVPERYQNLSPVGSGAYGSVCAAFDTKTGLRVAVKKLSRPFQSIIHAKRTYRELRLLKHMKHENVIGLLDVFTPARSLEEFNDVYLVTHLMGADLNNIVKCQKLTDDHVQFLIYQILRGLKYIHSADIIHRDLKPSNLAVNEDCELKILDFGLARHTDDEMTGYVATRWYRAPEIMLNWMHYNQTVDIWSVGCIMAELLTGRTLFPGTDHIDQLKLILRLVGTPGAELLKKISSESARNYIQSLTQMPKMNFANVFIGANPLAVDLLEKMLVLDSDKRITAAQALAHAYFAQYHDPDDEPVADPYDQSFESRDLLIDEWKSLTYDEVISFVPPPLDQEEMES

IC50 [µM] | Structure (SMILES)
≤ 10 | O=C1SCC(Cc2ccc3ccccc3c2)CN1c1c(Cl)cccc1Cl (stereo unspecified)
≤ 10 | O=C1CCC(Cc2ccc(F)cc2F)CN1c1c(Cl)cc(CO)cc1Cl (stereo unspecified)
≤ 10 | O=C1CCC(Cc2ccc(Cl)cc2Cl)CN1c1c(Cl)cccc1Cl (stereo unspecified)
≤ 10 | O=C1CCC(Cc2ccc3ccccc3c2)CN1c1c(Cl)cccc1Cl (stereo unspecified)
≤ 10 | Cc1cc(C)cc(CC2CCC(=O)N(c3c(Cl)cccc3Cl)C2)c1 (stereo unspecified)
≤ 10 | O=C1OCCN1c1cc(Cl)c(N2CC(Cc3ccc(F)cc3F)CCC2=O)c(Cl)c1 (stereo unspecified)
≤ 10 | CNc1cc(Cl)c(N2CC(Sc3ccc(F)cc3F)CCC2=O)c(Cl)c1 (stereo unspecified)
≤ 10 | O=C1CCC(Oc2cccc3ccccc23)CN1C1C(Cl)CCCC1Cl (stereo unspecified)
≤ 10 | O=C1OCC(Cc2ccc(F)cc2F)CN1c1c(Cl)ccc(O)c1Cl (stereo unspecified)
≤ 10 | O=C1CCC(Oc2ccc(F)cc2F)CN1c1c(Cl)cc(O)nc1Cl (stereo unspecified)
≤ 10 | O=C1CCC(Cc2cccc3ccccc23)CN1c1c(Cl)cccc1Cl (stereo unspecified)
≤ 10 | O=C(CNc1cc(Cl)c(N2CC(Cc3ccc(F)cc3F)CCC2=O)c(Cl)c1)NOCc1ccccc1 (stereo unspecified)
≤ 10 | CN1CCN(c2cc(Cl)c(N3CC(Cc4ccc(F)cc4F)CCC3=O)c(Cl)c2)CC1 (stereo unspecified)
≤ 10 | COC(=O)/C=C/c1ccccc1CC1CCC(=O)N(c2c(C)cccc2C)C1 (stereo unspecified)
≤ 10 | O=C1CCC(Sc2ccccc2)CN1c1c(Cl)cncc1Cl (stereo unspecified)
≤ 10 | O=C1SCC(Cc2ccc(F)cc2F)CN1c1c(Cl)ccc(O)c1Cl (stereo unspecified)
≤ 10 | O=C(Cc1ccccc1)Nc1cc(Cl)c(N2CC(Sc3ccc(F)cc3F)CCC2=O)c(Cl)c1 (stereo unspecified)
≤ 10 | O=C1CCC(Cc2ccc(Cl)cc2)CN1c1c(Cl)ccnc1Cl (stereo unspecified)
≤ 10 | COc1ccc(SC2CCC(=O)N(c3c(Cl)ccnc3Cl)C2)cc1 (stereo unspecified)

IC50 [µM] | Structure (SMILES)
≤ 10 | O=C1CCC(Cc2ccc(Cl)cc2)CN1c1c(Cl)cncc1Cl (stereo unspecified)
≤ 10 | CN1CC(Cc2ccccc2)CN(c2c(Cl)cccc2Cl)C1=O (stereo unspecified)
≤ 10 | O=C1CCC(Oc2ccc(F)cc2F)CN1c1c(Cl)ncc(CO)c1Cl (stereo unspecified)
≤ 10 | CNC1CCC(Cl)C(N2CC(Cc3ccc(F)cc3F)CCC2=O)C1Cl (stereo unspecified)
≤ 10 | CN1CC(Cc2ccc(F)cc2F)CN(c2c(Cl)cc(CO)cc2Cl)C1=O (stereo unspecified)
≤ 10 | O=C1CCC(Oc2ccc(Cl)cc2Cl)CN1c1c(Cl)csc1Cl (stereo unspecified)
≤ 10 | COCC1CC(Cc2ccc(F)cc2F)CN(c2c(Cl)cccc2Cl)C1=O (stereo unspecified)
≤ 10 | CC(=O)Nc1ccc(Cl)c(N2CC(Cc3ccc(F)cc3F)CNC2=O)c1Cl (stereo unspecified)
≤ 10 | CN(C)CCCc1cc(Cl)c(N2CC(Cc3ccc(F)cc3F)CCC2=O)c(Cl)c1 (stereo unspecified)
≤ 10 | Cc1cc(C)cc(SC2CCC(=O)N(c3c(Cl)cncc3Cl)C2)c1 (stereo unspecified)
≤ 10 | O=C1CNC(Cc2ccc(F)cc2F)CN1c1c(Cl)cccc1Cl (stereo unspecified)
≤ 10 | CCc1ccc(CC2CCC(=O)N(c3c(Cl)cccc3Cl)C2)cc1 (stereo unspecified)
≤ 10 | O=C(Cc1ccccc1)NC1CCC(Cl)C(N2CC(Oc3ccc(F)cc3F)CCC2=O)C1Cl (stereo unspecified)
≤ 10 | Cc1ccc(CC2CN(c3c(Cl)cccc3Cl)C(=O)CS2)cc1 (stereo unspecified)
≤ 10 | O=C(O)CCC(=O)Nc1cc(Cl)c(N2CC(Cc3ccc(F)cc3F)CCC2=O)c(Cl)c1 (stereo unspecified)
≤ 10 | O=C1CCC(Sc2cccc3ccccc23)CN1c1c(Cl)csc1Cl (stereo unspecified)
≤ 10 | O=C1CCC(Cc2ccc3ccccc3c2)CN1c1c(Cl)cncc1Cl (stereo unspecified)
≤ 10 | O=C(Cc1ccccc1)Nc1ccc(Cl)c(N2CC(Sc3ccc(F)cc3F)CCC2=O)c1Cl (stereo unspecified)

Second part, the compound before the results:

Structure (SMILES) | IC50 [µM]
O=C(O)CNc1ccc(Cl)c(N2CC(Cc3ccc(F)cc3F)CCC2=O)c1 (stereo unspecified) | ≤ 10
Cc1cc(C(=O)N2CCN(C)CC2)cc(C)c1N1CC(Cc2ccc(F)cc2F)CCC1=O (stereo unspecified) | ≤ 10
COC(=O)c1cc(C)c(N2C[C@@H](Cc3ccc(F)cc3F)C[C@@H](C)C2=O)c(C)c1 | ≤ 10
O=C1CCC(Oc2cc(Cl)cc(Cl)c2)CN1c1c(Cl)cncc1Cl (stereo unspecified) | ≤ 10
O=C1CCC(Cc2ccc(F)cc2F)CN1c1c(Cl)cc(NCCO)cc1Cl (stereo unspecified) | ≤ 10
CNc1ccc(Cl)c(N2CC(Cc3ccc(F)cc3F)SCC2=O)c1Cl (stereo unspecified) | ≤ 10
O=C1CCC(Cc2ccc(F)cc2F)CN1c1c(Cl)cc(Br)cc1Cl (stereo unspecified) | ≤ 10
O=C1CCC(Oc2ccc3ccccc3c2)CN1c1c(Cl)ccnc1Cl (stereo unspecified) | ≤ 10
O=C1NCC(Cc2ccc(F)cc2F)CN1c1c(Cl)cc(Br)cc1Cl (stereo unspecified) | ≤ 10
C[C@@H]1C[C@H](Cc2ccc(F)cc2F)CN(c2c(Cl)cc(NCCN(C)C)cc2Cl)C1=O | ≤ 10
CN(C)NC(=O)CNc1cc(Cl)c(N2CC(Cc3ccc(F)cc3F)CCC2=O)c(Cl)c1 (stereo unspecified) | ≤ 10
Nc1cc(Cl)c(N2CC(Cc3ccc(F)cc3F)SCC2=O)c(Cl)c1 (stereo unspecified) | ≤ 10
Cc1ccc2ccccc2c1N1CC(Cc2ccc(F)cc2F)CCC1=O (stereo unspecified) | ≤ 10
O=C1CCC(Cc2ccc(F)cc2F)CN1c1c(Cl)cc(O)cc1Cl (stereo unspecified) | ≤ 10
CNc1cc(Cl)c(N2CC(Sc3ccc(F)cc3F)CCC2=O)c(Cl)n1 (stereo unspecified) | ≤ 10
Nc1ncc(Cl)c(N2CC(Oc3ccc(F)cc3F)CCC2=O)c1Cl (stereo unspecified) | ≤ 10
Cc1cc(C)cc(SC2CCC(=O)N(C3C(Cl)CCCC3Cl)C2)c1 (stereo unspecified) | ≤ 10
CS(=O)(=O)N1CCC(Nc2cc(Cl)c(N3CC(Cc4ccc(F)cc4F)CCC3=O)c(Cl)c2)CC1 (stereo unspecified) | ≤ 10
N[C@@H](CO)C(=O)Nc1cc(Cl)c(N2CC(Cc3ccc(F)cc3F)CCC2=O)c(Cl)c1 (stereo partly specified) | ≤ 10
O=C1COC(Cc2ccccc2F)CN1c1c(Cl)cccc1Cl (stereo unspecified) | ≤ 10
CNc1cc(Cl)c(N2CC(Cc3ccc(F)cc3F)CN(C)C2=O)c(Cl)c1 (stereo unspecified) | ≤ 10
NC1CC(Cl)C(N2CC(Oc3ccc(F)cc3F)CCC2=O)C(Cl)C1 (stereo unspecified) | ≤ 10
Cc1ccc(CC2COC(=O)N(c3c(Cl)cccc3Cl)C2)cc1 (stereo unspecified) | ≤ 10
Cc1ccccc1OC1CCC(=O)N(c2c(Cl)csc2Cl)C1 (stereo unspecified) | ≤ 10
Cc1cc(C)cc(SC2CCC(=O)N(c3c(Cl)cccc3Cl)C2)c1 (stereo unspecified) | ≤ 10

Structure (SMILES) | IC50 [µM]
O=C1CCC(Cc2ccc(F)cc2F)CN1c1c(Cl)sc(O)c1Cl (stereo unspecified) | ≤ 10
Cc1ccc(OC2CCC(=O)N(c3c(Cl)cccc3Cl)C2)c(C)c1 (stereo unspecified) | ≤ 10
CC(C)(C)OC(=O)Nc1cc(Cl)c(N2CC(Cc3ccc(F)cc3F)CCC2=O)c(Cl)c1 (stereo unspecified) | ≤ 10
O=C1CCC(Cc2ccc(F)cc2F)CN1c1c(Cl)cc(NC2CCNCC2)cc1Cl (stereo unspecified) | ≤ 10
O=C1COC(Cc2ccc(Cl)cc2Cl)CN1c1c(Cl)cccc1Cl (stereo unspecified) | ≤ 10
COc1ccccc1SC1CCC(=O)N(c2c(Cl)cccc2Cl)C1 (stereo unspecified) | ≤ 10
Cc1cc(C)cc(CC2CN(c3c(Cl)cccc3Cl)C(=O)CO2)c1 (stereo unspecified) | ≤ 10
O=C1CCC(Cc2ccc(F)cc2F)CN1c1c(Cl)cc(N2C(=O)CCCC2=O)cc1Cl (stereo unspecified) | ≤ 10
O=C1OCC(Cc2cccc3ccccc23)CN1c1c(Cl)cccc1Cl (stereo unspecified) | ≤ 10
O=C1COC(Cc2cccc3ccccc23)CN1c1c(Cl)cccc1Cl (stereo unspecified) | ≤ 10
CNc1cc(Cl)c(N2CC(Cc3ccc(F)cc3F)CCC2=O)c(Cl)c1 (stereo unspecified) | ≤ 10
Cc1ccc(OC2CCC(=O)N(c3c(Cl)cncc3Cl)C2)c(C)c1 (stereo unspecified) | ≤ 10
O=C(Cc1ccccc1)Nc1cc(Cl)c(N2CC(Oc3ccc(F)cc3F)CCC2=O)c(Cl)n1 (stereo unspecified) | ≤ 10
Nc1cc(Cl)c(N2CC(Sc3ccc(F)cc3F)CCC2=O)c(Cl)n1 (stereo unspecified) | ≤ 10
O=C1CCC(Cc2ccc(F)cc2F)CN1c1c(Cl)cc(NCCN2CCOCC2)cc1Cl (stereo unspecified) | ≤ 10
Nc1cnc(Cl)c(N2CC(Cc3ccc(F)cc3F)CCC2=O)c1Cl (stereo unspecified) | ≤ 10
O=C(Cc1ccccc1)NC1CC(Cl)C(N2CC(Sc3ccc(F)cc3F)CCC2=O)C(Cl)C1 (stereo unspecified) | ≤ 10
O=C1CCC(Sc2ccccc2)CN1c1c(Cl)cccc1Cl (stereo unspecified) | ≤ 10
COc1ccccc1OC1CCC(=O)N(C2C(Cl)CCCC2Cl)C1 (stereo unspecified) | ≤ 10
O=C1CCC(Sc2ccc(F)cc2)CN1c1c(Cl)cccc1Cl (stereo unspecified) | ≤ 10
CCNC(=O)NCc1ccccc1CC1CCC(=O)N(c2c(Cl)cccc2Cl)C1 (stereo unspecified) | ≤ 10
O=C1CCC(Cc2ccc(F)cc2F)CN1c1c(Cl)cc(O)nc1Cl (stereo unspecified) | ≤ 10
COCCOCOc1ccccc1CC1CCC(=O)N(c2c(C)cccc2C)C1 (stereo unspecified) | ≤ 10
Cc1cc(C)cc(CC2CSC(=O)N(c3c(Cl)cccc3Cl)C2)c1 (stereo unspecified) | ≤ 10
O=C1NCC(Cc2cc(F)cc(F)c2)CN1c1c(Cl)cccc1Cl (stereo unspecified) | ≤ 10

Structure (SMILES) | IC50 [µM]
O=C1CCC(Sc2ccc(F)cc2F)CN1c1c(Cl)ncc(O)c1Cl (stereo unspecified) | ≤ 10
CN(C)CCNc1cc(Cl)c(N2CC(Cc3ccc(F)cc3F)CCC2=O)c(Cl)c1 (stereo unspecified) | ≤ 10
O=C1CCC(Cc2ccccc2Cl)CN1c1c(Cl)cncc1Cl (stereo unspecified) | ≤ 10
O=C1CCC(Oc2cc(Cl)cc(Cl)c2)CN1c1c(Cl)csc1Cl (stereo unspecified) | ≤ 10
COc1ccccc1CC1CN(c2c(Cl)cccc2Cl)C(=O)CO1 (stereo unspecified) | ≤ 10
CC(C)(C)OC(=O)Nc1ccc(Cl)c(N2CC(Cc3ccc(F)cc3F)CCC2=O)c1 (stereo unspecified) | ≤ 10
Cc1cc(C(=O)NCCC(=O)O)cc(C)c1N1CC(Cc2ccc(F)cc2F)CCC1=O (stereo unspecified) | ≤ 10
CC(C)(C)NC(=O)CNc1cc(Cl)c(N2CC(Cc3ccc(F)cc3F)CCC2=O)c(Cl)c1 (stereo unspecified) | ≤ 10
CCOC(=O)CCNC(=O)c1cc(C)c(N2CC(Cc3ccc(F)cc3F)CCC2=O)c(C)c1 (stereo unspecified) | ≤ 10
Nc1sc(Cl)c(N2CC(Sc3ccc(F)cc3F)CCC2=O)c1Cl (stereo unspecified) | ≤ 10
O=C1CCC(Cc2ccccc2F)CN1c1c(Cl)csc1Cl (stereo unspecified) | ≤ 10
O=C1CSC(Cc2ccc(F)cc2F)CN1c1c(Cl)cccc1Cl (stereo unspecified) | ≤ 10
COc1ccc(CC2CN(c3c(Cl)cccc3Cl)C(=O)CS2)cc1 (stereo unspecified) | ≤ 10
Cc1cc(C(=O)NCCN(C)C)cc(C)c1N1CC(Cc2ccc(F)cc2F)CNC1=O (stereo unspecified) | ≤ 10
O=C1CCC(Oc2ccccc2Cl)CN1c1c(Cl)cncc1Cl (stereo unspecified) | ≤ 10
CC(=O)NCc1ccccc1CC1CCC(=O)N(c2c(Cl)cccc2Cl)C1 (stereo unspecified) | ≤ 10
O=C1CCC(Oc2ccc(Cl)cc2Cl)CN1c1c(Cl)cccc1Cl (stereo unspecified) | ≤ 10
O=C(Cc1ccccc1)NC1CCC(Cl)C(N2CC(Cc3ccc(F)cc3F)CCC2=O)C1Cl (stereo unspecified) | ≤ 10
Nc1cc(Cl)c(N2CC(Cc3ccc(F)cc3F)CNC2=O)c(Cl)c1 (stereo unspecified) | ≤ 10
Nc1ncc(Cl)c(N2CC(Sc3ccc(F)cc3F)CCC2=O)c1Cl (stereo unspecified) | ≤ 10
Cc1cc(C(=O)O)cc(C)c1N1CC(Cc2ccc(F)cc2F)CCC1=O (stereo unspecified) | ≤ 10
O=C1CCC(Sc2ccc3ccccc3c2)CN1c1c(Cl)cncc1Cl (stereo unspecified) | ≤ 10
O=C1CCC(Sc2ccc(F)cc2F)CN1c1c(Cl)cnc(O)c1Cl (stereo unspecified) | ≤ 10
CC(=O)NC1CCC(Cl)C(N2CC(Oc3ccc(F)cc3F)CCC2=O)C1Cl (stereo unspecified) | ≤ 10

Reference: the Kinase Knowledgebase extract (Sharma et al. 2016)
